Assay results: patent US5519028A, “Antiviral preparations” (priority 1992, dated 1996)

How the values were obtained:
Format in all cases: cell-based, human
interleukin-6 = experiment: IL-6 production by monocytes of HIV-positive donors
Description: (§1) The effects of flavopereirine on the production of primary (IL-1β and TNF-α) and secondary (IL-6) cytokines by monocytes was also tested. The adhesive monocytes used were taken from the blood of two types of donors:
HIV-positive donors from medical consultations. These individuals were in the early stages of HIV infection and, at the moment of taking the blood, were not undergoing any treatment. The risk factors involved were intravenous drug abuse for six of the donors, sexual transmission for three and blood transfusion (in Zaire) for one patient. No correlation was found between the risk factors and the results of the experiments.
The response of the monocytes taken from the various HIV-positive donors was tested in terms of spontaneous response. The quantities of cells received were low (the donors were not affected by cytapheresy), and the experiments were therefore limited by the number of cells available.
Interleukin-4 was used at the same time as flavopereirine H, since it has been shown prior to these experiments that this cytokine blocks the spontaneous production of interleukin-6 in certain HIV-positive patients.
In five cases, […] was used for comparison, since this, too, blocks the production of IL-6 in normal monocytes stimulated by LPS.

TNF-α = TNF-α production by monocytes of normal donors; details: 1000 U/ml, 48 hours
Description: as §1
(§2) Normal donors--voluntary blood donors who attended the blood bank of the Pitie-Salpetriere Hospital, Paris, France; and
(§3) Product H was not used in these experiments at a rate of more than 20 μg/ml water, since above this rate, net toxicity could have been produced.

IL-1β = IL-1β production by monocytes of normal donors; details: 1000 U/ml, 48 hours; except donor #10
Description: as §1, §2, §3

## Interleukin-9: blocks the production of IL-6 in normal monocytes stimulated by LPS
interleukin-6; combined with interleukin-4, five cases
  compound effect with interleukin-4 on IL-6 production: never has a compound effect to that of interleukin-4
interleukin-6; five cases
  maximum inhibition of spontaneous production of IL-6: ≤ 50%

## interferon: stimulation of monocytes over a period of 48 hours with interferon (1000 U/ml) [reference compound]
TNF-α
  production of primary cytokines (TNF-α): did not cause any production of primary cytokines
IL-1β
  production of primary cytokines (IL-1β): did not cause any production of primary cytokines, except in donor #10 in 1L-1β

B1: Interleukin-4: cytokine that blocks the spontaneous production of interleukin-6 in certain HIV-positive patients (protein, UniProt P05112 25-153, looked up)
Interleukin-4: HKCDITLQEIIKTLNSLTEQKTLCTELTVTDIFAASKNTTEKETFCRAATVLRQFYSHHEKDTRCLGATAQQFHRHKQLIRFLKRLDRNLWGLAGLNSCPVKEANQSTLENFLERLKTIMREKYSKCSS
interleukin-6; alone, never total, p<0.05
  inhibition of production of IL-6: inhibited the production of IL-6, but this inhibition was never total
